Data: ChEMBL document CHEMBL2331402, “Salicylaldoxime derivatives as new leads for the development of carbonic anhydrase inhibitors” (Bioorg Med Chem, 2013)
pKi: −log10 of the molar value.

What was measured:
Carbonic anhydrase 12 = Carbonic anhydrase 12 (Homo sapiens, UniProt O43570); assay: Inhibition of human recombinant carbonic anhydrase 12 preincubated for 15 mins by CO2 hydration stopped-flow assay
Carbonic anhydrase 2 = Carbonic anhydrase 2 (Homo sapiens, UniProt P00918); assay: Inhibition of human recombinant carbonic anhydrase 2 preincubated for 15 mins by CO2 hydration stopped-flow assay
Carbonic anhydrase 1 = Carbonic anhydrase 1 (Homo sapiens, UniProt P00915); assay: Inhibition of human recombinant carbonic anhydrase 1 preincubated for 15 mins by CO2 hydration stopped-flow assay
Carbonic anhydrase 9 = Carbonic anhydrase 9 (Homo sapiens, UniProt Q16790); assay: Inhibition of human recombinant carbonic anhydrase 9 preincubated for 15 mins by CO2 hydration stopped-flow assay

Carbonic anhydrase 12, sequence (O43570 whole entry): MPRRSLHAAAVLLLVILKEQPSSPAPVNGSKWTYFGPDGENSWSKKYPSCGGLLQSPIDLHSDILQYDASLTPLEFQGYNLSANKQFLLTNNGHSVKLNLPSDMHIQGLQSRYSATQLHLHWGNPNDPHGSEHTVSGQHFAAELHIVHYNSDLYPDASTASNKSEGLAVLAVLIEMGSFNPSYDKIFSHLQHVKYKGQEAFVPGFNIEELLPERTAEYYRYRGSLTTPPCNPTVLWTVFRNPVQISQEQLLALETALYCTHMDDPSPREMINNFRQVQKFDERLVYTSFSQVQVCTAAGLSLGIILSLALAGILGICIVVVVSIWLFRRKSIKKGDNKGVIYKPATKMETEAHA
Carbonic anhydrase 1, sequence (P00915 whole entry): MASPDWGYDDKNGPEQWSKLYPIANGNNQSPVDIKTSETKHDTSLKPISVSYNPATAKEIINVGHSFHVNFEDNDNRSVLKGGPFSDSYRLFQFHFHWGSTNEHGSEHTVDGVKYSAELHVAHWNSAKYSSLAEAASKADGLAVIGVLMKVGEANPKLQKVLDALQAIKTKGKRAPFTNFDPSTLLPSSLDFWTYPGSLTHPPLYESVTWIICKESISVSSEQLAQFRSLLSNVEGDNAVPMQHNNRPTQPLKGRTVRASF

SMILES	pKi (Carbonic anhydrase 12)	pKi (Carbonic anhydrase 2)	pKi (Carbonic anhydrase 1)	pKi (Carbonic anhydrase 9)
O/N=C/c1c(O)ccc(-c2ccc(O)cc2)c1Cl	5.37	5.64	5.40	–
O/N=C/c1c(O)ccc(-c2ccc(O)c(F)c2)c1Cl	5.26	5.43	5.14	5.15
Oc1cc(F)cc(F)c1	–	3.47	–	6.03
N#Cc1c(-c2ccc(O)cc2)ccc(/C=N/O)c1O	5.50	5.23	5.12	5.11
Cc1c(-c2ccc(O)cc2)ccc(/C=N/O)c1O	5.13	5.20	5.10	5.19
COc1ccc(-c2ccc(O)c(/C=N/O)c2)cc1F	5.23	5.44	5.16	4.99
O/N=C/c1cc(-c2ccc(O)c(F)c2)ccc1O	5.37	5.38	5.04	5.16
C/C(=N\O)c1ccc(-c2ccc(O)cc2)c(Cl)c1O	5.34	5.48	5.16	4.99
C/C(=N\O)c1ccc(-c2ccc(O)c(F)c2)c(Cl)c1O	5.32	5.30	5.12	5.15
